Holding throughout (assay type): cell-based
In assay [1] the test system is pancreatic islets from wildtype mice. The assay is described as follows: Insulin secretion in isolated pancreatic islets from wildtype mice. The settings on record: 5.5 mM glucose; 5 μM D1; 37° C. for 60 min; WT islets; FIG. 11C. The method, then: As used or herein, pancreatic islets from wildtype and UCP2 knockout mice were isolated according to a method used for rats (Cawthorn and Chan, Mol. Cell. Endocrinol. 1991, 75:197-204, the entire teachings of which are incorporated herein by reference), except that the total exposure to type XI collagenase (Worthington Biochemical Co., NJ) was 30 min. and the Ficoll gradient was altered to layers of 25%, 23%, 21%, and 11%. Islets were harvested from the 11%-21% interface.
Islets were cultured in RPMI medium containing 11.0 mM glucose and supplemented with 1% penicillin-streptomycin. 7.5% fetal bovine serum (all from Gibco/BRL, Burlington, ON), and 10 mM Hepes (Sigma). After culturing for 20-24 hr, the islets were transferred to microcentrifuge tubes, pelleted (800 g for 5 min), and the medium aspirated and replaced with 1.0 mL DME medium containing 1% gelatin and 5.5 mM glucose with no genipin (control), 50 nM genipin, 0.5 μM genipin, and 5 μM genipin. For insulin secretion studies, the three islets were incubated per tube. After incubation at 37° C. for 60 min., the islets were centrifuged. The supernatant was collected and stored at −80° C., and then later assayed for insulin using Rat Insulin ELISA Kit (Cat. No. INSKR020, Crystal Chem., Inc., Chicago, Ill.).
FIGS. 11B and 11C show their effects on insulin secretion. Pancreatic islets were isolated from WT or UCP2 knockout (KO) mice. […]

The next assay has as its system isolated thymocytes. The assay is described as follows: Proton leak in isolated thymocytes. The text has this:
(§1) It has been shown that addition of high levels of superoxide to isolated mitochondrial stimulates proton leak if UCP1, UCP2 or UCP3 (collectively “UCPs”) are present.

Assay [2] deals with thymocytes that are deficient in UCP2. The assay is described as follows: Proton leak in thymocytes deficient in UCP2.
Text: as §1

The test system of the next assay is isolated islets. Kind of assay: ATP levels and insulin secretion in isolated islets.
Text: as §1

The next assay relates to UCP2 deficient islets. Kind of assay: ATP levels and insulin secretion in UCP2 deficient islets.
Text: as §1

Consider `COC(=O)C1=CO[C@@H]2OC[C@@]3(O)[C@@H]2[C@@H]1C[C@H]3Cl` [compound 55], for which the insulin secretion result in assay [1] is reported as “increases insulin secretion in WT islets”.
In the case of `O=C(O)c1ccc(/C2=C3\C=CC(=N3)/C(c3ccc(C(=O)O)cc3)=c3/cc/c4[n]3[Mn]([Cl])[n]3c2ccc3/C(c2ccc(C(=O)O)cc2)=C2/C=CC(=N2)\C=4c2ccc(C(=O)O)cc2)cc1` [MnTBAP], the proton leak result in the assay on isolated thymocytes is given as “decreases proton leak”. Besides, in assay [2], the proton leak entry is “not present”. In the assay on isolated islets, the ATP levels result is recorded as “increased ATP levels” and the insulin secretion result is listed as “increased insulin secretion”. Moreover, the “ATP levels and insulin secretion” value in the assay on UCP2 deficient islets is “absent”.

Source of the values: patent US8093288B2, “Genipin derivatives and uses thereof” (Beth Israel Deaconess Medical Center, priority 2003, dated 2012).
